Values of other authors, collected in patent publication US7501409B2, “Preparations for oral administration” (Mitsubishi Tanabe Pharma Corporation, priority 2000, dated 2009).
Where a name gives a salt, the structure may show the parent alone. Read-outs that look alike come from different tables or passages of the source.

Which solubility (pH 1.2) does the source give for CCCc1nn(C)c2c(=O)[nH]c(-c3cc(S(=O)(=O)N4CCN(C)CC4)ccc3OCC)nc12 [sildenafil citrate] here?
The solubility was 2.52 mg/mL.

And the solubility (pH 6.8)?
Its solubility is 0.11 mg/mL.
